Reference: patent publication US5041567A, “Antibacterial monic acid derivatives” (Beecham Group plc, priority 1982, dated 1991)
In brackets after ≈: the same amount, converted by molar mass.

Columns and labels:
Staph. aureus Oxford [1] = assay: MIC against veterinary bacteria in vitro; conditions: Staphylococcus aureus, 18 h
Experimental: (§1) The activity of the compounds of the Examples against various veterinarily important bacteria, was assayed in vitro using two-fold serial dilutions in Diagnostic Sensitivity Test Agar inoculated with 10^4 organisms.

K. aerogenes A = assay: MIC against human bacteria in vitro; format: cell-based; conditions: Klebsiella aerogenes; K. aerogenes A; 5% chocolated horse blood agar, 18 hours; read-out: MIC
Strep. agalactiae 2788-B = assay: MIC against human bacteria in vitro; format: cell-based; conditions: Streptococcus agalactiae; Strep. agalactiae 2788-B; 5% chocolated horse blood agar, 18 hours; read-out: MIC
Sarcina lutea 8340 = assay: MIC against human bacteria in vitro; format: cell-based; conditions: Micrococcus luteus; Sarcina lutea 8340; 5% chocolated horse blood agar, 18 hours; read-out: MIC
M. bovis NCTC 10131 = assay: microbe, parasite or virus in culture; format: cell-based; conditions: NCTC10131, 144 h
Strep. dysgalactiae SPD1 = assay: MIC against veterinary bacteria in vitro; conditions: Streptococcus dysgalactiae, SPD1, 18 h
Experimental: as §1

M. suipneumoniae MS 16 = assay: MIC against mycoplasma in vitro; format: cell-based; conditions: Mesomycoplasma hyopneumoniae, MS16, 144 h; M. suipneumoniae MS 16; 6 days, 37° C.; read-out: MIC
M. suipneumoniae TAM 6N = assay: MIC against mycoplasma in vitro; format: cell-based; conditions: Mesomycoplasma hyopneumoniae, TAM6N, 144 h; M. suipneumoniae TAM 6N; 6 days, 37° C.; read-out: MIC
[2] = system: Staph. aureus B4 (pen. resistant); assay: MIC against veterinary bacteria in vitro; conditions: Staphylococcus aureus, 18 h
Experimental: as §1

[3] = system: M. suipneumoniae PW/C/210; assay: MIC against mycoplasma in vitro; format: cell-based; conditions: Mesomycoplasma hyopneumoniae, 144 h; M. suipneumoniae PW/C/210; 6 days, 37° C.; read-out: MIC
M. hyorhinis ATCC 23234 = assay: MIC against mycoplasma in vitro; format: cell-based; conditions: Mesomycoplasma hyorhinis, ATCC23234, 144 h; M. hyorhinis ATCC 23234; 6 days, 37° C.; read-out: MIC
Bord. bronchiseptica B08 = assay: MIC against veterinary bacteria in vitro; conditions: Bordetella bronchiseptica, B08, 18 h
Experimental: as §1

S. typhimurium S18 = assay: MIC against veterinary bacteria in vitro; conditions: Salmonella enterica, TYPHIMURIUM, 18 h
Experimental: as §1

[4] = system: M. suipneumoniae J2206/183^b; assay: MIC against mycoplasma in vitro; format: cell-based; conditions: Mesomycoplasma hyopneumoniae, 144 h; M. suipneumoniae J2206/183^b; 6 days, 37° C.; read-out: MIC
Strep. faecalis I = assay: MIC against human bacteria in vitro; format: cell-based; conditions: Enterococcus faecalis; Strep. faecalis I; 5% chocolated horse blood agar, 18 hours; read-out: MIC
Staph. aureus Oxford [5] = assay: MIC against human bacteria in vitro; format: cell-based; conditions: Staphylococcus aureus; Staph. aureus Oxford; 5% chocolated horse blood agar, 18 hours; read-out: MIC
[6] = system: Corynebacterium pyogenes CY1; assay: MIC against veterinary bacteria in vitro; conditions: CY1, 18 h
Experimental: as §1

M. suipneumoniae Str. 11 = assay: MIC against mycoplasma in vitro; format: cell-based; conditions: Mesomycoplasma hyopneumoniae, 144 h; M. suipneumoniae Str. 11; 6 days, 37° C.; read-out: MIC
[7] = system: Pasteurella multocida 1633; assay: MIC against human bacteria in vitro; format: cell-based; conditions: Pasteurella multocida 1633; 5% chocolated horse blood agar, 18 hours; read-out: MIC
Staph. aureus W2827 = assay: MIC against human bacteria in vitro; format: cell-based; conditions: Staphylococcus aureus; Staph. aureus W2827; 5% chocolated horse blood agar, 18 hours; read-out: MIC
[8] = system: Staph. aureus 152 (pen. sens); assay: MIC against veterinary bacteria in vitro; conditions: Staphylococcus aureus, 18 h
Experimental: as §1

Strep. pneumoniae CN33 = assay: MIC against human bacteria in vitro; format: cell-based; conditions: Streptococcus pneumoniae, CN33, 18 h
[9] = system: M. bovigenitalium ATCC 14173; assay: MIC against mycoplasma in vitro; format: cell-based; conditions: 144 h; M. bovigenitalium ATCC 14173; 6 days, 37° C.; read-out: MIC
Past. multocida PA2 = assay: MIC against veterinary bacteria in vitro; conditions: Pasteurella multocida, PA2, 18 h
Experimental: as §1

M. hyorhinis ATCC 25021 = assay: MIC against mycoplasma in vitro; format: cell-based; conditions: Mesomycoplasma hyorhinis, ATCC25021, 144 h; M. hyorhinis ATCC 25021; 6 days, 37° C.; read-out: MIC
P. mirabilis 889 = assay: MIC against human bacteria in vitro; format: cell-based; conditions: Proteus mirabilis, 889, 18 h
M. suipneumoniae UCD 1 = assay: MIC against mycoplasma in vitro; format: cell-based; conditions: Mesomycoplasma hyopneumoniae, UCD1, 144 h; M. suipneumoniae UCD 1; 6 days, 37° C.; read-out: MIC
M. suipneumoniae HK(2) = assay: MIC against mycoplasma in vitro; format: cell-based; conditions: Mesomycoplasma hyopneumoniae, 144 h; M. suipneumoniae HK(2); 6 days, 37° C.; read-out: MIC
M. suipneumoniae JF 435 = assay: MIC against mycoplasma in vitro; format: cell-based; conditions: Mesomycoplasma hyopneumoniae, JF435, 144 h; M. suipneumoniae JF 435; 6 days, 37° C.; read-out: MIC
M. suipneumoniae NB12 = assay: MIC against mycoplasma in vitro; format: cell-based; conditions: Mesomycoplasma hyopneumoniae, 144 h; M. suipneumoniae NB12; Friis broth, 0.9% agarose, 6 days, 37° C.; read-out: MIC
M. dispar NCTC 10125 = assay: MIC against mycoplasma in vitro; format: cell-based; conditions: 144 h; M. dispar NCTC 10125; 6 days, 37° C.; read-out: MIC
[10] = system: Erysipelothrix rhusiopathiae NCTC 8163; assay: MIC against veterinary bacteria in vitro; conditions: Erysipelothrix rhusiopathiae, NCTC8163, 18 h
Experimental: as §1

M. gallisepticum S6 = assay: MIC against mycoplasma in vitro; format: cell-based; conditions: Mycoplasmoides gallisepticum, 144 h; M. gallisepticum S6; 6 days, 37° C.; read-out: MIC
[11] = system: M. suipneumoniae NCTC 10110; assay: MIC against mycoplasma in vitro; format: cell-based; conditions: Mesomycoplasma hyopneumoniae, NCTC10110, 144 h; M. suipneumoniae NCTC 10110; 6 days, 37° C.; read-out: MIC
[12] = system: Strep. suis (group D) SPS11; assay: MIC against veterinary bacteria in vitro; conditions: Streptococcus suis, 18 h
Experimental: as §1

Molecule `C/C(=C\c1nc(C)c(C)o1)C[C@@H]1OC[C@H](C[C@@H]2O[C@H]2[C@@H](C)[C@H](C)O)[C@@H](O)[C@H]1O` [Example 39, 4,5-Dimethyl-2-(1-normon-2-yl)oxazole A] has an MIC (Staph. aureus Oxford [1]) greater than 80 µg/mL, an MIC (K. aerogenes A) greater than 100 µg/mL and an MIC (Strep. agalactiae 2788-B) greater than 100 µg/mL. For the same molecule, the MIC (Sarcina lutea 8340) was greater than 100 µg/mL, the MIC (M. bovis NCTC 10131) was 5 µg/mL (≈ 12.6 µM) and the MIC (Strep. dysgalactiae SPD1) was greater than 80 µg/mL. The MIC (M. suipneumoniae MS 16) was greater than 10 µg/mL, the MIC (M. suipneumoniae TAM 6N) was greater than 10 µg/mL and the MIC [2] was greater than 80 µg/mL. It also gave an MIC [3] greater than 10 µg/mL, an MIC (M. hyorhinis ATCC 23234) greater than 10 µg/mL and an MIC (Bord. bronchiseptica B08) greater than 80 µg/mL. It also gave an MIC (S. typhimurium S18) greater than 80 µg/mL, an MIC [4] greater than 10 µg/mL and an MIC (Strep. faecalis I) greater than 100 µg/mL. It also gave an MIC (Staph. aureus Oxford [5]) of 100 µg/mL (≈ 253 µM), an MIC [6] greater than 80 µg/mL and an MIC (M. suipneumoniae Str. 11) greater than 10 µg/mL. It also gave an MIC [7] of 50 µg/mL (≈ 126 µM), an MIC (Staph. aureus W2827) greater than 100 µg/mL and an MIC [8] greater than 80 µg/mL. It also gave an MIC (Strep. pneumoniae CN33) of 100 µg/mL (≈ 253 µM), an MIC [9] of 5 µg/mL (≈ 12.6 µM) and an MIC (Past. multocida PA2) of 40 µg/mL (≈ 101 µM). For the same molecule, the MIC (M. hyorhinis ATCC 25021) was greater than 10 µg/mL, the MIC (P. mirabilis 889) was greater than 100 µg/mL and the MIC (M. suipneumoniae UCD 1) was greater than 10 µg/mL. It also gave an MIC (M. suipneumoniae HK(2)) greater than 10 µg/mL, an MIC (M. suipneumoniae JF 435) greater than 10 µg/mL and an MIC (M. suipneumoniae NB12) greater than 10 µg/mL. It also gave an MIC (M. dispar NCTC 10125) greater than 10 µg/mL, an MIC [10] greater than 80 µg/mL and an MIC (M. gallisepticum S6) greater than 10 µg/mL. For the same molecule, the MIC [11] was greater than 10 µg/mL and the MIC [12] was greater than 80 µg/mL.

Work on `C/C(=C\c1nc(C)c(-c2ccccc2)o1)C[C@@H]1OC[C@H](C[C@@H]2O[C@H]2[C@@H](C)[C@H](C)O)[C@@H](O)[C@H]1O` [Example 40, 4-Methyl-2-(1-normon-2-yl)-5-phenyloxazole A] yielded an MIC (Staph. aureus Oxford [1]) of 80 µg/mL (≈ 175 µM), an MIC (K. aerogenes A) greater than 100 µg/mL and an MIC (Strep. agalactiae 2788-B) greater than 100 µg/mL. It also gave an MIC (Sarcina lutea 8340) greater than 100 µg/mL, an MIC (M. bovis NCTC 10131) of 5 µg/mL (≈ 10.9 µM) and an MIC (Strep. dysgalactiae SPD1) greater than 80 µg/mL. The MIC (M. suipneumoniae MS 16) was greater than 10 µg/mL, the MIC (M. suipneumoniae TAM 6N) was greater than 10 µg/mL and the MIC [2] was 80 µg/mL (≈ 175 µM). The MIC [3] was greater than 10 µg/mL, the MIC (M. hyorhinis ATCC 23234) was greater than 10 µg/mL and the MIC (Bord. bronchiseptica B08) was greater than 80 µg/mL. It also gave an MIC (S. typhimurium S18) greater than 80 µg/mL, an MIC [4] greater than 10 µg/mL and an MIC (Strep. faecalis I) greater than 100 µg/mL. The MIC (Staph. aureus Oxford [5]) was 100 µg/mL (≈ 219 µM), the MIC [6] was 80 µg/mL (≈ 175 µM) and the MIC (M. suipneumoniae Str. 11) was greater than 10 µg/mL. The MIC [7] was 100 µg/mL (≈ 219 µM), the MIC (Staph. aureus W2827) was greater than 100 µg/mL and the MIC [8] was 80 µg/mL (≈ 175 µM). It also gave an MIC (Strep. pneumoniae CN33) greater than 100 µg/mL, an MIC [9] of 10 µg/mL (≈ 21.9 µM) and an MIC (Past. multocida PA2) of 80 µg/mL (≈ 175 µM). For the same molecule, the MIC (M. hyorhinis ATCC 25021) was greater than 10 µg/mL, the MIC (P. mirabilis 889) was greater than 100 µg/mL and the MIC (M. suipneumoniae UCD 1) was greater than 10 µg/mL. For the same molecule, the MIC (M. suipneumoniae HK(2)) was greater than 10 µg/mL, the MIC (M. suipneumoniae JF 435) was greater than 10 µg/mL and the MIC (M. suipneumoniae NB12) was greater than 10 µg/mL. For the same molecule, the MIC (M. dispar NCTC 10125) was greater than 10 µg/mL, the MIC [10] was greater than 80 µg/mL and the MIC (M. gallisepticum S6) was greater than 10 µg/mL. For the same molecule, the MIC [11] was greater than 10 µg/mL and the MIC [12] was greater than 80 µg/mL.

With `C/C(=C\c1nc(-c2ccccc2)c(-c2ccccc2)o1)C[C@@H]1OC[C@H](C[C@@H]2O[C@H]2[C@@H](C)[C@H](C)O)[C@@H](O)[C@H]1O` [Example 41, 4,5-Diphenyl-2-(1-normon-2-yl)oxazole A] the MIC (Staph. aureus Oxford [1]) was 40 µg/mL (≈ 77 µM), the MIC (K. aerogenes A) was greater than 100 µg/mL and the MIC (Strep. agalactiae 2788-B) was greater than 100 µg/mL. The MIC (Sarcina lutea 8340) was greater than 100 µg/mL, the MIC (M. bovis NCTC 10131) was 2.5 µg/mL (≈ 4.81 µM) and the MIC (Strep. dysgalactiae SPD1) was 20 µg/mL (≈ 38.5 µM). For the same molecule, the MIC (M. suipneumoniae MS 16) was greater than 10 µg/mL, the MIC (M. suipneumoniae TAM 6N) was greater than 10 µg/mL and the MIC [2] was 40 µg/mL (≈ 77 µM). It also gave an MIC [3] greater than 10 µg/mL, an MIC (M. hyorhinis ATCC 23234) greater than 10 µg/mL and an MIC (Bord. bronchiseptica B08) greater than 80 µg/mL. It also gave an MIC (S. typhimurium S18) greater than 80 µg/mL, an MIC [4] greater than 10 µg/mL and an MIC (Strep. faecalis I) greater than 100 µg/mL. The MIC (Staph. aureus Oxford [5]) was 100 µg/mL (≈ 192 µM), the MIC [6] was 40 µg/mL (≈ 77 µM) and the MIC (M. suipneumoniae Str. 11) was greater than 10 µg/mL. It also gave an MIC [7] of 25 µg/mL (≈ 48.1 µM), an MIC (Staph. aureus W2827) greater than 100 µg/mL and an MIC [8] of 40 µg/mL (≈ 77 µM). It also gave an MIC (Strep. pneumoniae CN33) greater than 100 µg/mL, an MIC [9] of 5 µg/mL (≈ 9.62 µM) and an MIC (Past. multocida PA2) of 20 µg/mL (≈ 38.5 µM). The MIC (M. hyorhinis ATCC 25021) was greater than 10 µg/mL, the MIC (P. mirabilis 889) was greater than 100 µg/mL and the MIC (M. suipneumoniae UCD 1) was greater than 10 µg/mL. It also gave an MIC (M. suipneumoniae HK(2)) greater than 10 µg/mL, an MIC (M. suipneumoniae JF 435) greater than 10 µg/mL and an MIC (M. suipneumoniae NB12) greater than 10 µg/mL. The MIC (M. dispar NCTC 10125) was greater than 10 µg/mL, the MIC [10] was greater than 80 µg/mL and the MIC (M. gallisepticum S6) was greater than 10 µg/mL. It also gave an MIC [11] greater than 10 µg/mL and an MIC [12] greater than 80 µg/mL.
